Measured values from article PMC9993459, “A novel selective spleen tyrosine kinase inhibitor SKI-O-703 (cevidoplenib) ameliorates lupus nephritis and serum-induced arthritis in murine models” (Clinical and Experimental Immunology, 2022).
pIC50: −log10 of the molar value.

What was measured:
mouse primary B cells = assay: CP670-dilution proliferation assay, LPS-stimulated B cells; format: cell-based; conditions: 72 h
Description: Splenic CD19^+ B cells from C57BL/6 mice were sorted by MACS (Milteny Biotec), stained with 3 μM cell proliferation dye eFluor 670 (CP670; eBioscience), and cultured for 72 h in the presence of either 10 μg/ml LPS (Sigma Aldrich) or 5 μg/ml anti-mouse IgM (Jackson Immuno Research Laboratories), 10 μg/ml anti-CD40 mAb (Biolegend) and 10 ng/ml IL-4 (Peprotech), and assayed by FACS. To detect apoptotic cells, unstimulated cells were cultured for 24 h, stained with Annexin V and 7-aminoactinomycin D (7-AAD), and assayed by FACS.
Figure 2: in vitro effects of SKI-O -703 on the proliferation, survival, and differentiation of B cells. Mouse primary B cells were labeled with CP670, and stimulated with either anti-IgM mAb, CD40L and IL-4 (A) or LPS (B) for 72 h in the presence or absence of SKI-O-703 and tofacitinib at the indicated concentrations; they were then assayed by FACS. (C and D) Mouse primary B cells were cultured as in A and B for 24 h, stained with Annexin V and 7-AAD, and assayed by FACS. Representative FACS profiles and graphs displaying mean Annexin V-positivity are shown. (E) Human primary B cells were stimulated with CpG ODN plus IL-2 (to detect IgM and IgG) or CpG ODN 2006 plus IFN-α (to detect IL-6) in the presence or absence of inhibitors. The culture supernatants were assayed by ELISA. Graphs are expressed as % positivity relative to the controls (without inhibitor). […]

FGFR1 = FGFR1 (Homo sapiens, UniProt P11362); assay: Kinase assay (LANCE Ultra TR-FRET), FGFR1; format: biochemical
Sequence of FGFR1 (P11362 22-822, species assumed): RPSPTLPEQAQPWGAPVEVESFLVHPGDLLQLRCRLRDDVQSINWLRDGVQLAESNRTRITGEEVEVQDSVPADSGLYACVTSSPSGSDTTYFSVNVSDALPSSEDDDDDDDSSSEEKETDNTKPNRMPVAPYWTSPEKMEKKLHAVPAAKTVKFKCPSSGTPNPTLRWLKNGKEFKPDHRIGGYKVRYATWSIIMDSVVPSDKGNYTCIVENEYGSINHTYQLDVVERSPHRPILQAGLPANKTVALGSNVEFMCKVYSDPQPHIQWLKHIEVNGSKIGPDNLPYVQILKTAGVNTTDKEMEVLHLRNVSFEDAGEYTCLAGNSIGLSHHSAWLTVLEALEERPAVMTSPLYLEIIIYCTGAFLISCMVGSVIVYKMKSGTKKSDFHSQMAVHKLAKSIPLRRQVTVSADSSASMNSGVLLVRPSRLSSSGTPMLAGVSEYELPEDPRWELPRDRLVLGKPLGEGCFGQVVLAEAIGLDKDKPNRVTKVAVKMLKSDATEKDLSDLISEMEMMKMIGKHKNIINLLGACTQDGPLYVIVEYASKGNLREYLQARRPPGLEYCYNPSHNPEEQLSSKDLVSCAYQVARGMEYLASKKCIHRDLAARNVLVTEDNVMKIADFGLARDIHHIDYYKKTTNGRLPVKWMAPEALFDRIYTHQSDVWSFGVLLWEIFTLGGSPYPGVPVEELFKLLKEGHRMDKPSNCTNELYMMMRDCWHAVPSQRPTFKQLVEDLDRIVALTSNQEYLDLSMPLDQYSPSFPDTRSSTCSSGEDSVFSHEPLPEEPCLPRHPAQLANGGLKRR
Description: (§1) Kinase assays were conducted in 384-well plates using LANCE ultra 66 time-resolved fluorescence resonance energy transfer (TR-FRET) methods, according to the manufacturer’s instructions (Perkin-Elmer). In brief, each kinase was pre-incubated with a serially diluted compound for 30 min, incubated with ULight poly-GT peptide substrate and ATP for up to 1 h. Thirty minutes after adding Eu-labeled anti-phosphopeptides Ab diluted in LANCE Detection Buffer, LANCE signals were measured with an EnVision multilabel reader (Perkin-Elmer).

Pyk2 = Pyk2 (Homo sapiens, UniProt Q14289); assay: Kinase assay (LANCE Ultra TR-FRET), Pyk2; format: biochemical
Sequence of Pyk2 (Q14289 whole entry, species assumed): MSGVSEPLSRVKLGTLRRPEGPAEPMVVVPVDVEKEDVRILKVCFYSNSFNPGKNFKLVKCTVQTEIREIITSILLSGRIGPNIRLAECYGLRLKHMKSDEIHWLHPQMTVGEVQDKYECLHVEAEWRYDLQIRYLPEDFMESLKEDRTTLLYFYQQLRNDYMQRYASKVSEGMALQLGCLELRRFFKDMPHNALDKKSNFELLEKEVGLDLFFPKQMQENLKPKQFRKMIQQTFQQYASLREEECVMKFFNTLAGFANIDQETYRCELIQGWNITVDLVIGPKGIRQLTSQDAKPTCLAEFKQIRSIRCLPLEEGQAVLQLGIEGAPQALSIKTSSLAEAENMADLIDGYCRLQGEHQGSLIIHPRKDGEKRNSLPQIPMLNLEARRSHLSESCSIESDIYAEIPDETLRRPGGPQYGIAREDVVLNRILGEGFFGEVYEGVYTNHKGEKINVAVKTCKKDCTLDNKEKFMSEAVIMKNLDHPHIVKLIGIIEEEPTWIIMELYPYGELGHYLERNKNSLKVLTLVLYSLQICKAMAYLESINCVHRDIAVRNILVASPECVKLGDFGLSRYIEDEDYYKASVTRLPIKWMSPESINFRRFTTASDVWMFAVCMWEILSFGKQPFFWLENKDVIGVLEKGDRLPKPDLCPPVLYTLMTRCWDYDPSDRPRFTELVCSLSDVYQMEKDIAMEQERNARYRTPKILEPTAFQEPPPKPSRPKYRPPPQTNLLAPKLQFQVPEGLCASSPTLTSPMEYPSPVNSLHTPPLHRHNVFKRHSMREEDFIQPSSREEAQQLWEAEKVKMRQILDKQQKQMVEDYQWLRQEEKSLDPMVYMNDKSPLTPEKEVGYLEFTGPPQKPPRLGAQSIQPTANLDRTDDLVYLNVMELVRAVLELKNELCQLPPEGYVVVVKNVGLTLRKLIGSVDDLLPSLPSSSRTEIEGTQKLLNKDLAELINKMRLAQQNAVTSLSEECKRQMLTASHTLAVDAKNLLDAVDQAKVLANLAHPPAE
Description: as §1

Row | Structure (SMILES) | Concentration required to significantly inhibit LPS-induced proliferation (mouse primary B cells) | Ratio to Syk (FGFR1) (FGFR1; IC50 ratio to Syk) | pIC50 (FGFR1; kinase activity, TR-FRET) | Ratio to Syk (Pyk2) (Pyk2; IC50 ratio to Syk) | pIC50 (Pyk2; kinase activity, TR-FRET)
1 | CS(=O)(=O)O.CS(=O)(=O)O.Cc1nn(-c2ccnc(Nc3ccc4c(c3)c(C(=O)C3CC3)cn4C)n2)cc1CN1C[C@H](O)CO1 [SKI-O-703, (S)-cyclopropyl(5-((4-(4-((4-hydroxyisoxazolidin-2-yl)methyl)-3-methyl-1H-pyrazol-1-yl)pyrimidin-2-yl)amino)-1-methyl-1H-indol-3-yl)methanone dimesylate] | at least 5 μM |  |  |  | 
2 | Cc1nn(-c2ccnc(Nc3ccc4c(c3)c(C(=O)C3CC3)cn4C)n2)cc1CN1C[C@H](O)CO1 [SKI-O-592] |  | 2753 | 4.77 | 115 | 6.15
